Assay results published in ChEMBL document CHEMBL6121054, “Discovery of Metabolic Reprogramming 2-Quinolones as Effective Antimicrobials for MRSA-Infected Wound Therapy” (J Med Chem, 2025).
In brackets after ≈: the same amount, converted by molar mass. Activity calls are given as the source filed them. No cut-off for these calls is given here.

Assays:
[1] = tested on: Staphylococcus aureus; experiment: Antibacterial activity against Staphylococcus aureus DU1090 incubated for 16 to 24 hrs by broth microdilution method; format: functional; conditions: time 16-24 hrs
[2] = tested on: Listeria monocytogenes; experiment: Antibacterial activity against Listeria monocytogenes EGD incubated for 16 to 24 hrs by broth microdilution method; format: functional; conditions: time 16-24 hrs
[3] = tested on: Staphylococcus aureus; experiment: Antibacterial activity against methicillin-resistant Staphylococcus aureus MRSA 1 incubated for 16 to 24 hrs by broth microdilution method; format: functional; conditions: Staphylococcus aureus, MRSA 1, time 16-24 hrs; read-out: MIC
[4] = tested on: Staphylococcus aureus; experiment: Antibacterial activity against methicillin-resistant Staphylococcus aureus MRSA 2 incubated for 16 to 24 hrs by broth microdilution method; format: functional; conditions: time 16-24 hrs
[5] = tested on: Acinetobacter baumannii; experiment: Antibacterial activity against Acinetobacter baumannii ATCC 17978 incubated for 16 to 24 hrs by broth microdilution method; format: functional; conditions: time 16-24 hrs
[6] = tested on: Acinetobacter baumannii; experiment: Antibacterial activity against Acinetobacter baumannii ATCC 19606 incubated for 16 to 24 hrs by broth microdilution method; format: functional; conditions: time 16-24 hrs
[7] = tested on: Escherichia coli; experiment: Antibacterial activity against Escherichia coli ATCC 25922 incubated for 16 to 24 hrs by broth microdilution method; format: functional; conditions: time 16-24 hrs
[8] = tested on: Klebsiella pneumoniae; experiment: Antibacterial activity against Klebsiella pneumoniae ATCC 43816 incubated for 16 to 24 hrs by broth microdilution method; format: functional; conditions: time 16-24 hrs
[9] = tested on: Staphylococcus aureus; experiment: Bactericidal activity against methicillin-resistant Staphylococcus aureus MRSA 1; format: functional
[10] = tested on: Staphylococcus aureus; experiment: Bactericidal activity against Staphylococcus aureus USA300; format: functional
[11] = tested on: Staphylococcus aureus; experiment: Bactericidal activity against Staphylococcus aureus ATCC 29213; format: functional
[12] = tested on: Listeria monocytogenes; experiment: Bactericidal activity against Listeria monocytogenes ATCC 19115; format: functional
[13] = tested on: Listeria monocytogenes; experiment: Bactericidal activity against Listeria monocytogenes EGD; format: functional
[14] = tested on: Klebsiella pneumoniae; experiment: Bactericidal activity against Klebsiella pneumoniae E8.31; format: functional
[15] = tested on: Staphylococcus aureus; experiment: Bacteriostatic activity against methicillin-resistant Staphylococcus aureus USA300 at 1 to 2 times MIC measured upto 24 hrs by time-kill assay; format: functional, organism-based
[16] = tested on: Staphylococcus aureus; experiment: Bactericidal activity against methicillin-resistant Staphylococcus aureus USA300 at 4 times MIC measured for 12 to 24 hrs by time-kill assay; format: functional, organism-based; conditions: time 12-24 hrs
[17] = tested on: Streptococcus suis; experiment: Bactericidal activity against Streptococcus suis ZY05719 measured upto 24 hrs by time-kill assay; format: functional, organism-based
[18] = tested on: Listeria monocytogenes; experiment: Bactericidal activity against Listeria monocytogenes EGD measured upto 24 hrs by time-kill assay; format: functional, organism-based
[19] = tested on: Staphylococcus aureus; experiment: Inhibition of resistance development in Staphylococcus aureus USA300 incubated for 24 hrs measured after 14 passages by broth microdilution method; format: functional, organism-based
[20] = tested on: Staphylococcus aureus; experiment: Inhibition of biofilm formation in Staphylococcus aureus USA300 assessed as decrease in green fluorescence at 0.06 to 0.13 ug/ml incubated for 24 hrs by SYTO 9 dye based CLSM analysis; format: functional, organism-based; conditions: dose 0.06-0.13 µg/ml
[21] = tested on: Staphylococcus aureus; experiment: Disruption of cell membrane integrity in Staphylococcus aureus USA300 assessed as visible cavity formation on surface at 4 to 8 times MIC by TEM/SEM analysis; format: functional, organism-based
[22] = tested on: Staphylococcus aureus; experiment: Disruption of cell membrane integrity in Staphylococcus aureus USA300 assessed as increase in red fluorescence at 1 to 4 times MIC by SYTO-9/PI dye based CLSM analysis; format: functional, organism-based
[23] = tested on: Staphylococcus aureus; experiment: Induction of cell permeability in Staphylococcus aureus USA300 upto 0.13 uM by PI dye based analysis; format: functional, organism-based
[24] = tested on: Staphylococcus aureus; experiment: Effect on purine metabolism in Staphylococcus aureus USA300 at 4 times MIC by KEGG analysis; format: functional, organism-based
[25] = tested on: Staphylococcus aureus; experiment: Effect on TCA cycle in Staphylococcus aureus USA300 at 4 times MIC by KEGG analysis; format: functional, organism-based
[26] = tested on: Staphylococcus aureus; experiment: Effect on lysine degradation in Staphylococcus aureus USA300 at 4 times MIC by KEGG analysis; format: functional, organism-based
[27] = tested on: Staphylococcus aureus; experiment: Antibacterial activity against Staphylococcus aureus USA300 assessed as acceleration of TCA cycle measured by decrease in NAD+/NADH ratio upto 0.25 ug/ml incubated for 5 hrs; format: functional, organism-based; conditions: dose <= 0.25 µg/ml
[28] = tested on: Staphylococcus aureus; experiment: Antibacterial activity against Staphylococcus aureus USA300 assessed as acceleration of TCA cycle measured by increase in gltA mRNA level upto 0.25 ug/ml incubated for 6 hrs by RT-PCR analysis; format: functional, organism-based; conditions: dose <= 0.25 µg/ml
[29] = tested on: Staphylococcus aureus; experiment: Antibacterial activity against Staphylococcus aureus USA300 assessed as acceleration of TCA cycle measured by increase in icd mRNA level upto 0.25 ug/ml incubated for 6 hrs by RT-PCR analysis; format: functional, organism-based; conditions: dose <= 0.25 µg/ml
[30] = tested on: Staphylococcus aureus; experiment: Induction of H2O2 accumulation in Staphylococcus aureus USA300 upto 0.25 ug/ml incubated for 5 hrs; format: functional, organism-based; conditions: dose <= 0.25 µg/ml
[31] = tested on: Staphylococcus aureus; experiment: Impairment of antioxidant defense system in Staphylococcus aureus USA300 upto 0.25 ug/ml by WST-8 assay; format: functional, organism-based; conditions: dose <= 0.25 µg/ml
[32] = tested on: Staphylococcus aureus; experiment: Upregulation of ATP level in Staphylococcus aureus USA300 upto 0.25 ug/ml incubated for 5 hrs; format: functional, organism-based; conditions: dose <= 0.25 µg/ml
[33] = tested on: A549; experiment: Reversal of Staphylococcus aureus USA300-induced cytotoxicity in human A549 cells infected with bacteria assessed as cell viability upto 8 ug/ml preincubated with compound followed by […] infection for 5 hrs by LDH assay; format: functional, cell-based; conditions: dose <= 8.0 µg/ml
[34] = tested on: Staphylococcus aureus; experiment: Antibacterial activity against methicillin-resistant Staphylococcus aureus infected in BALB/c mouse wound model assessed as decrease in wound area at 20 to 80 mg/kg administered topically on days 0, 3 and 6 measured after 12 days; format: functional, organism-based; conditions: dose 20-80 mg/kg, route top, time 12.0 day
[35] = tested on: Staphylococcus aureus; experiment: Antibacterial activity against methicillin-resistant Staphylococcus aureus infected in BALB/c mouse wound model assessed as reduction in bacterial load at 20 to 80 mg/kg administered topically on days 0, 3 and 6 measured after 12 days; format: functional, organism-based; conditions: dose 20-80 mg/kg, route top, time 12.0 day
[36] = tested on: Staphylococcus aureus; experiment: Antibacterial activity against methicillin-resistant Staphylococcus aureus infected in BALB/c mouse wound model assessed as reduction in bacterial load at 20 to 80 mg/kg administered topically on days 0, 3 and 6 measured after 6 days; format: functional, organism-based; conditions: dose 20-80 mg/kg, route top, time 6.0 day
[37] = tested on: Staphylococcus aureus; experiment: Antibacterial activity against methicillin-resistant Staphylococcus aureus infected in BALB/c mouse wound model assessed as increase in thickness of granulation tissue at 20 to 80 mg/kg administered topically on days 0, 3 and 6 measured for 6 to 12 days by H and E staining based analysis; format: functional, organism-based; conditions: dose 20-80 mg/kg, route top, time 6-12 day
[38] = tested on: Staphylococcus aureus; experiment: Antibacterial activity against methicillin-resistant Staphylococcus aureus infected in BALB/c mouse wound model assessed as angiogenesis in skin tissue by measuring increase in CD31 expression at 20 to 80 mg/kg administered topically on days 0, 3 and 6 measured after 12 days by IHC analysis; format: functional, organism-based; conditions: dose 20-80 mg/kg, route top, time 12.0 day
[39] = tested on: Staphylococcus aureus; experiment: Antibacterial activity against methicillin-resistant Staphylococcus aureus infected in BALB/c mouse wound model assessed as decrease in CD68 expression in skin tissue at 20 to 80 mg/kg administered topically on days 0, 3 and 6 measured after 12 days by IHC analysis; format: functional, organism-based; conditions: dose 20-80 mg/kg, route top, time 12.0 day
[40] = tested on: Staphylococcus aureus; experiment: Antibacterial activity against methicillin-resistant Staphylococcus aureus infected in BALB/c mouse wound model assessed as reversal of inflammation-induced IL-1beta level in wound at 20 to 80 mg/kg administered topically on days 0, 3 and 6 measured after 12 days by ELISA; format: functional, organism-based; conditions: dose 20-80 mg/kg, route top, time 12.0 day

With `CCn1c(=O)c(C(=O)Nc2nnc(-c3ccc(C)cn3)s2)c(O)c2ccccc21` the MIC [1] was 0.02 µg/mL (≈ 0.0491 µM), the MIC [2] was 0.02 µg/mL (≈ 0.0491 µM) and the MIC [3] was 0.02 µg/mL (≈ 0.0491 µM). For the same compound, the MIC [4] was 0.02 µg/mL (≈ 0.0491 µM), the MIC [5] was over 512 µg/mL and the MIC [6] was over 512 µg/mL. The MIC [7] was over 512 µg/mL, the MIC [8] was over 512 µg/mL and the MBC [9] was 0.05 µg/mL (≈ 0.123 µM). For the same compound, the MBC [10] was 0.16 µg/mL (≈ 0.393 µM), the MBC [11] was 0.15 µg/mL (≈ 0.368 µM) and the MBC [12] was over 0.25 µg/mL. For the same compound, the MBC [13] was over 0.25 µg/mL, the MBC [14] was over 512 µg/mL and the Activity [15] was “Active”. The Activity [16] was “Active”, the Activity [17] was “Active; Bacteria Were Suppressed Or Completely Eliminated” and the Activity [18] was “Active; Bacteria Were Suppressed Or Completely Eliminated”. For the same compound, the inhibition [19] was “Active”, the inhibition [20] was “Active” and the Activity [21] was “Active”. The Activity [22] was “Active”, the Activity [23] was “Active” and the Activity [24] was “Active”. For the same compound, the Activity [25] was “Active”, the Activity [26] was “Active” and the Activity [27] was “Active”. For the same compound, the Activity [28] was “Active”, the Activity [29] was “Active” and the Activity [30] was “Active”. The Activity [31] was “Active”, the Activity [32] was “Active” and the Activity [33] was “Active”. For the same compound, the Activity [34] was “Active”, the Activity [35] was “Active” and the Activity [36] was “inactive”. The Activity [37] was “Active”, the Activity [38] was “Active” and the Activity [39] was “Active”. The Activity [40] was “Active”.
